Assay results published in patent US20260076937A1, “COMPOSITION FOR PREVENTING OR TREATING AUTOIMMUNE DISEASES COMPRISING A BCAT1 INHIBITOR” (Seoul National University R&DB Foundation, priority 2024, published 2026).
“Also recorded” adds a separate entry of the source.

System: TCR-stimulated human CD4+ memory T cells
Assay: Cytokine ELISA of culture supernatants, CD4+ memory T cells
Type: cell-based
Experimental: The study protocol was reviewed and approved by the Institutional Review Board (IRB) of Seoul National University Hospital. Peripheral blood was drawn from healthy controls (HC) after obtaining written consent from study participants, and all experiments were performed according to approved guidelines. Peripheral blood mononuclear cells (PBMCs) were isolated from peripheral blood using density gradient centrifugation (Biocoll separation solution; BIOCHROM Inc., Cambridge, UK). Total CD4^+ T cells, naive T cells and memory CD4^+ T-cells were isolated in a negative selection manner from CD14^+ monocyte depleted PBMCs using the MojoSort™ Human Total CD4^+ T-Cells, CD4^+ naive T-cells and CD4^+ memory T-cell isolation kit (BioLegend, San Diego, Calif.). Purified T cells were cultured in RPMI 1640 medium (hereinafter, “complete RPMI 1640”) supplemented with 10% fetal bovine serum (FBS), 1% penicillin/streptomycin, and 1% L-glutamine. Cells were stimulated with anti-CD3/CD28-coated microbeads (1:10 ratio, Dynabeads T-Activator CD3/CD28, Thermo Fisher Scientific, Waltham, MA) in the presence of designated chemical inhibitors or reagents including 2-amino-2-norbornanecarboxylic acid (BCH), JPH203, acetate, MG132, VH298, cobalt chloride (CoCl2), cycloheximid (CHX) (all provided by Sigma-Aldrich, St. Louis, MO), BCAT1 inhibitor 2 (Bi2: provided by Cayman Chemical, Ann Arbor, MI), 3-hydroxy-3-methylbutyric acid (HMB; provided by Thermo Fisher Scientific, Waltham, MA), and L-β-homoleucine (LβhL; provided by Santa Cruz Biotechnology, Heidelberg, Germany). In some experiments, a customized medium depleted of five essential amino acids (leucine, valine, isoleucine, phenylalanine, methionine) was used (Welgene, Gyeongsan, South Korea). All amino acids used (L-leucine, L-valine, L-isoleucine, L-phenylalanine, L-methionine) were purchased from Sigma-Aldrich.
IL-17A and IFN-γ amounts in culture supernatants were quantified using commercially available human ELISA kits (IL-17A ELISA kit by eBioscience and human IFN-γ ELISA MAX Deluxe by BioLegend) according to the manufacturer's instructions. Light density was measured using an Infinite M200 instrument (Tecan, Männedorf, Switzerland).

Compound: O=C(NNS(=O)(=O)c1ccccc1C(F)(F)F)c1cc2cc(Cl)ccc2o1 [Bi2, BCATc inhibitor 2]
- IL-17A production in CD4+ memory T cells treated with statins: further reduced
- IFN-γ production by CD4+ memory T cells (TCR stimulation 3 days, Bi2 10 μM, JPH203 10 μM, HMB 0.4 mM, VH298 100 nM, LβhL 400 mg/L): did not affect
- IL-17A production by CD4+ memory T cells (TCR stimulation 3 days, Bi2 10 μM, JPH203 10 μM, statin 10 μM, LβhL 400 mg/L): preferentially inhibited; also recorded: significantly reduced
